Tests used:
[1] = test system: Male Wistar rats; assay: Oral glucose tolerance test: influence of D-psicose on the reaction of increasing blood glucose; format: in vivo, rat
Method: Male Wistar rats of age 6 months were fed ad libitum under a condition that the bright cycle was at a temperature of 25° C. and a humidity of 50 to 70% from 8:00 am to 20:00 pm, for preliminary feeding for one week. On the day before the experiment, the rats were fasted for 12 hours and subsequently orally given D-glucose at 2 g/kg (in the form of 50% glucose solution) using a probe. Blood was drawn before the dosing and 30, 60, 90, 120, 150 and 180 minutes after the dosing. Blood glucose level was measured with a blood glucose meter. Alternatively, D-fructose or D-psicose at 0.32 g/kg (at 16% of D-glucose) was simultaneously given with D-glucose at 2 g/kg. In the same manner, blood glucose level was measured. Based on the resulting blood glucose levels, the area under the curve of blood glucose level (ΔAUC) was calculated.

[2] = test system: Male Wistar rats; assay: Influence of D-psicose diet on liver weight and composition (16-week feeding); format: in vivo, rat; details: 16 weeks
Method: Twenty-four male Wistar rats of age 3 weeks were fed ad libitum under a condition that the bright cycle was at a temperature of 25° C. and a humidity of 50 to 70% from 8:00 am to 20:00 pm, for preliminary feeding for one week. Subsequently, the rats were divided into 4 groups, each group consisting of 6 rats. The groups were defined a high fat/D-psicose diet (HF-P) group; a high fat/cellulose diet (HF-C) group; a low fat/D-psicose diet (LF-P) group; and a low fat/cellulose diet (LF-C) group. 20% beef fat and 5% soybean oil were used to prepare the high fat diets. 5% soybean oil was used to prepare the low fat diets. 5% D-psicose or cellulose was added to the individual diets. These rats were fed these experimental diets and water ad libitum for 16 weeks. On the last day of the experiment, the rats were decapitated and sacrificed to death, from which liver, flounder muscle and intraperitoneal fat tissues were resected. Glycogen, neutral fat and protein were assayed in the liver, while glycogen content was assayed in the flounder muscle. [table]

[3] = molecular target: T1, sucrase (Rattus norvegicus, UniProt P23739); assay: Sucrose administration experiment (inhibition of sucrase in vivo), plasma glucose; details: rats
T1 construct: from tissue; host or cells: small intestine of live male Wistar rats (oral sugar load)
T1 sequence (P23739 whole entry): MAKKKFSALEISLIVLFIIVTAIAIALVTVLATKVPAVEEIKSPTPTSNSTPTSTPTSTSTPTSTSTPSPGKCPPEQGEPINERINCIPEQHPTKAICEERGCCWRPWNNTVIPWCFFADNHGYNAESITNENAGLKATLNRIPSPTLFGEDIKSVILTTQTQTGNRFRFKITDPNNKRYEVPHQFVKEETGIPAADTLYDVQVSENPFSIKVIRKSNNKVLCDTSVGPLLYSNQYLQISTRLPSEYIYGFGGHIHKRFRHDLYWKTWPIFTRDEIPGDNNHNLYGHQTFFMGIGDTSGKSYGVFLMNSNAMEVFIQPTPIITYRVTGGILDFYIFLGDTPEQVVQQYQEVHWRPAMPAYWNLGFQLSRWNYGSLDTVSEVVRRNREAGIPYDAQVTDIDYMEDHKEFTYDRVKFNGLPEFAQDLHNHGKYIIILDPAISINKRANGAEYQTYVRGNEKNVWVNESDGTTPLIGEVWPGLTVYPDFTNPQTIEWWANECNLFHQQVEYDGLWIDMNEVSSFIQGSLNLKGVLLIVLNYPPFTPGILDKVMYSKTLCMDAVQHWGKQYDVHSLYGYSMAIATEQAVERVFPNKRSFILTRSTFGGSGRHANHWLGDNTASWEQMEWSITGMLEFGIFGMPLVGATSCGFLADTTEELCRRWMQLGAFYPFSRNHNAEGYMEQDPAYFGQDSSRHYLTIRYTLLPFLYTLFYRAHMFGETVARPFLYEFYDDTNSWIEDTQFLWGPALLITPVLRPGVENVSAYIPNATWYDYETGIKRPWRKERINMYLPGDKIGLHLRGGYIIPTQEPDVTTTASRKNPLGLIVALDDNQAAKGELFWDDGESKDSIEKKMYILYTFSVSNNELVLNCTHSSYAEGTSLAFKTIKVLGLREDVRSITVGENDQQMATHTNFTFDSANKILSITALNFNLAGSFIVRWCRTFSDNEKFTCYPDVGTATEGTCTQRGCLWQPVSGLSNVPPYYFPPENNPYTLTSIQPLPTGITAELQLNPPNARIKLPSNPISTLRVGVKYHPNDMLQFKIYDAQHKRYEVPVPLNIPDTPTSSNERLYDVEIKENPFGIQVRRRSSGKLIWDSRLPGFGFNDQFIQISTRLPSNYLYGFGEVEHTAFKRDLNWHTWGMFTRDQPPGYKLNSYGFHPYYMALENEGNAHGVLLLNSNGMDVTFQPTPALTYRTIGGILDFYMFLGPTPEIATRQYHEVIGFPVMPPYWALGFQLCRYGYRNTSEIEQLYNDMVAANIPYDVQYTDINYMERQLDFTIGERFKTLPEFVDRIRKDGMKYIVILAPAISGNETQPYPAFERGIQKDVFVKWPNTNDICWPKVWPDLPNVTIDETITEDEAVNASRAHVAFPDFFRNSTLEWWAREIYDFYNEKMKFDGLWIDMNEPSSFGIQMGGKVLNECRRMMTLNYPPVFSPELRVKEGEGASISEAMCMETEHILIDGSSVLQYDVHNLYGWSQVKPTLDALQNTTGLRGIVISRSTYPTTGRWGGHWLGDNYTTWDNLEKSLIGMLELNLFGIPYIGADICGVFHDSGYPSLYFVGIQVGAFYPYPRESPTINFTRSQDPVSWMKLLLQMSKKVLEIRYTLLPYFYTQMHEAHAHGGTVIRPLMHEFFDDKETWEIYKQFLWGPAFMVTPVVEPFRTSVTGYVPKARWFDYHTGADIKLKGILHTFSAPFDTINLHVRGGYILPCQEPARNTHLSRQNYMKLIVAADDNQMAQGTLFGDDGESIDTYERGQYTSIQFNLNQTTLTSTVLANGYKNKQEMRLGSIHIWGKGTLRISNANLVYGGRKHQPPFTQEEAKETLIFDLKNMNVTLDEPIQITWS
Method: Sucrose 2 g/kg+L-arabinose 200 mg/kg (SA)
Sucrose 2 g/kg+D-xylose 200 mg/kg (SX)
Sucrose 2 g/kg+D-fructose 200 mg/kg (SF)
Sucrose 2 g/kg+D-psicose 200 mg/kg (SP)
Sucrose 2 g/kg+(fructose 150 mg/kg+psicose 50 mg/kg) (SFP)

[4] = test system: maltase; assay: Maltose administration experiment (inhibition of maltase in vivo), plasma glucose; parameters: species or system rat; details: rats
Method: (§1) Thirty-six male Wistar rats of age 6 months are divided into 6 groups. The following sugars were given to the rats in the individual groups after 12-hour fasting. Before the administration and 30, 60, 90, 120 and 180 minutes after the administration, blood is drawn from the tail vein, to assay plasma glucose and insulin concentration.
2. Maltose 2 g/kg+L-arabinose 200 mg/kg (MA)
3. Maltose 2 g/kg+D-xylose 200 mg/kg (MX)
4. Maltose 2 g/kg+D-fructose 200 mg/kg (MF)
5. Maltose 2 g/kg+D-psicose 200 mg/kg (MP)
6. Maltose 2 g/kg+(fructose 150 mg/kg+psicose 50 mg/kg) (MFP)
(§2) Before the administration and 30, 60, 90, 120 and 180 minutes after the administration, plasma glucose level was assayed. The plasma glucose level 180 minutes later was used to calculate the area under the curve of plasma glucose level (ΔAUC).

[5] = test system: Male Wistar rats; assay: Soluble starch administration experiment, plasma glucose; format: in vivo, rat
Method: as §1
1. Soluble starch 2 g/kg (SS)
2. Soluble starch 2 g/kg+L-arabinose 200 mg/kg (SSA)
3. Soluble starch 2 g/kg+D-xylose 200 mg/kg (SSX)
4. Soluble starch 2 g/kg+D-fructose 200 mg/kg (SSF)
5. Soluble starch 2 g/kg+D-psicose 200 mg/kg (SSP)
6. Soluble starch 2 g/kg+(fructose 150 mg/kg+psicose 50 mg/kg) (SSFP)
as §2

[6] = test system: Male Wistar rats; assay: Intra-day variation of plasma glucose concentration in rats fed 5% sugar diets; format: in vivo, rat; details: 5% in diet, fed twice daily for 8 weeks
Text: Forty male Wistar rats of age 3 weeks were preliminarily fed for one week and then divided into 4 groups. Then, a control diet (AIN-76A), and the control diet with addition of 5% D-fructose, the control diet with addition of 5% D-psicose, and the control diet with addition of 5% psico-rare sugar were fed to the rats, twice daily (at 8 to 9 am and at 20 to 21 pm) ad libitum for 8 weeks. At 2 am, 6 am, 10 am, 14 pm, 18 pm and 22 pm on the week 7 or 8 of the feeding, blood was drawn from the tail veins of the rats. Plasma was separated from the blood to assay glucose concentration.

[7] = test system: liver; details: in vivo; cited from earlier work
[8] = test system: pancreatic island cells; details: in vitro; cited from earlier work
[9] = test system: α-glucosidase; details: in vitro; cited from earlier work
[10] = test system: liver; details: D-psicose added up to 20% of the weight of the feeds; cited from earlier work
[11] = D-glucose 2 g/kg + 0.32 g/kg test sugar
[12] = sucrose 2 g/kg + test sugar 200 mg/kg
[13] = maltose 2 g/kg + test sugar 200 mg/kg
[14] = soluble starch 2 g/kg + test sugar 200 mg/kg

O=C(CO)[C@H](O)[C@H](O)[C@H](O)CO [D-psicose]
increasing rate of blood glucose level compared with D-fructose [1, 11]: likely reduced | ΔAUC of blood glucose level compared with single D-glucose administration [1, 11]: significantly low | blood glucose level compared with single administration of D-glucose ([1]; D-glucose 2 g/kg + 0.32 g/kg test sugar, minutes after administration): significantly low in 60, 90 and 120 minutes | increase of the blood glucose level ([1]; oral D-glucose 2 g/kg with test sugar 0.32 g/kg (16% of D-glucose) simultaneously): suppressed | liver weight, effect of addition of D-psicose ([2]; 5% in diet, irrespective of the fat content, vs cellulose diet): increased | hepatic glycogen content, effect of addition of D-psicose ([2]; 5% in diet, vs cellulose diet): tended to increase | protein content per liver, effect of addition of D-psicose ([2]; 5% in diet, vs cellulose diet): significantly increased | weight of intraperitoneal fat tissues, effect of addition of D-psicose ([2]; 5% in diet, vs cellulose diet): no influence | Flounder muscle weight ([2]; high fat diet + 5% D-psicose): 210 ± 8 mg | Liver weight ([2]; high fat diet + 5% D-psicose): 9.5 ± 0.5 g | Weight of intraperitoneal fat tissues ([2]; high fat diet + 5% D-psicose): 27 ± 2 g | Flounder muscle weight ([2]; low fat diet + 5% D-psicose): 209 ± 10 mg | Liver weight ([2]; low fat diet + 5% D-psicose): 13.2 ± 0.3 g | Weight of intraperitoneal fat tissues ([2]; low fat diet + 5% D-psicose): 23 ± 1 g | Plasma glucose level, 0 min ([3]; before sucrose 2 g/kg + test sugar 200 mg/kg): 89 mg/dL | increase of blood glucose level up to 60 minutes after the administration, compared with sucrose alone ([3]; given simultaneously with sucrose): suppressed | Plasma glucose level, 30 min [3, 12]: 128 ± 12 ab mg/dl | Plasma glucose level, 60 min [3, 12]: 139 ± 13 ab mg/dl | Plasma glucose level, 90 min [3, 12]: 150 ± 20 a mg/dl | Plasma glucose level, 120 min [3, 12]: 143 ± 28 mg/dL | ΔAUC of plasma glucose level [3, 12]: 5339 min^− mg/dl | Plasma glucose level, 0 min ([4]; before maltose 2 g/kg + test sugar 200 mg/kg): 82 ± 8 mg/dL | action to suppress the increase of blood glucose level ([4]; given simultaneously with maltose (experiment 2)): the effect was low | Plasma glucose level, 30 min [4, 13]: 125 ± 21 mg/dL | Plasma glucose level, 60 min [4, 13]: 147 ± 16 b mg/dl | Plasma glucose level, 90 min [4, 13]: 146 ± 14 mg/dL | Plasma glucose level, 120 min [4, 13]: 132 ± 13 mg/dL | ΔAUC of plasma glucose level [4, 13]: 5887 min^− mg/dl | Plasma glucose level, 0 min ([5]; before soluble starch 2 g/kg + test sugar 200 mg/kg): 91 ± 10 mg/dL | action to suppress the increase of blood glucose level ([5]; given simultaneously with soluble starch (experiment 3)): the effect was low | Plasma glucose level, 30 min [5, 14]: 128 ± 12 mg/dL | Plasma glucose level, 60 min [5, 14]: 123 ± 21 mg/dL | Plasma glucose level, 90 min [5, 14]: 121 ± 17 mg/dL | Plasma glucose level, 120 min [5, 14]: 122 ± 16 mg/dL | ΔAUC of plasma glucose level [5, 14]: 3344 min^− mg/dl | increment of the area under the curve of plasma glucose concentration (ΔAUC) based on 8 am, compared with control and D-fructose groups [6]: significantly small | plasma glucose concentration compared with the control group and the D-fructose group ([6]; week 7 or 8): low throughout the day | toxicity causing the deterioration of the hepatic function [7]: no toxicity | insulin secretion from pancreatic island cells [8]: promoted | α-glucosidase inhibition [9]: inhibits | liver weight per body weight [10]: tended to increase

Reference: US8071558B2, “Application of D-psicose to suppression of abnormal circadian increase in blood glucose level” (Rare Sugar Production Technical Research Laboratories, LLC., priority 2005, dated 2011)
